Results published in article PMC5977019, “NMR, Novel Pharmacological and In Silico Docking Studies of Oxyacanthine and Tetrandrine: Bisbenzylisoquinoline Alkaloids Isolated from Berberis glaucocarpa Roots” (Journal of Analytical Methods in Chemistry, 2018).

What was measured:
urease (jack bean) [1] = biological target: T1, urease (jack bean) (Canavalia ensiformis, UniProt P07374); experiment: indophenol urease assay (ammonia production, […] nm); assay type: biochemical
urease (jack bean) [2] = biological target: T1, urease (jack bean); experiment: indophenol urease assay (ammonia production, […] nm), standard inhibitor; assay type: biochemical; conditions: read-out: IC50 ± SEM (μg/mL) (converted)

T1 sequence (P07374 whole entry, looked up): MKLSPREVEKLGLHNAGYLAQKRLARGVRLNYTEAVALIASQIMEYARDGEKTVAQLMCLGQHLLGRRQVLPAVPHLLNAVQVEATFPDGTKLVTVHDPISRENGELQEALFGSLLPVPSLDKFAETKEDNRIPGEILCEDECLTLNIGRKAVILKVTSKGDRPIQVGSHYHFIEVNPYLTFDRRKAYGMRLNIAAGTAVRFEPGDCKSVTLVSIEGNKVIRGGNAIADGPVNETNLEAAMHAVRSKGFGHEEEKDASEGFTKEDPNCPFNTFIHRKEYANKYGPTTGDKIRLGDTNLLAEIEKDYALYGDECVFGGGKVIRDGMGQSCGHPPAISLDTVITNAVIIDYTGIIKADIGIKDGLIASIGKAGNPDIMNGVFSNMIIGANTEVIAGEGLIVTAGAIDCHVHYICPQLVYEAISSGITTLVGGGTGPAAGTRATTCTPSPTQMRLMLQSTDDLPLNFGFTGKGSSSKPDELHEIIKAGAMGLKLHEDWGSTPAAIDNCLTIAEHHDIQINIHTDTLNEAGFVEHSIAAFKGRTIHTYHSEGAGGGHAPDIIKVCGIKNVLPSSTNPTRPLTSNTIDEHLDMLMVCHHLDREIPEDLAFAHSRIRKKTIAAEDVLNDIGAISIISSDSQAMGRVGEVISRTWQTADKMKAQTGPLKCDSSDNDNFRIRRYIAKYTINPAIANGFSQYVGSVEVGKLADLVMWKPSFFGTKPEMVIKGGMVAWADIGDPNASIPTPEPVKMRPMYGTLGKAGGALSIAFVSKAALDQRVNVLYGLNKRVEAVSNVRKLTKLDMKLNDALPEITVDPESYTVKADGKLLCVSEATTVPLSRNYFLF

SMILES: COc1cc2c3cc1Oc1c(OC)c(OC)cc4c1[C@H](Cc1ccc(cc1)Oc1cc(ccc1O)C[C@H]3N(C)CC2)N(C)CC4 [compound 1, oxyacanthine]
- IC50 (urease (jack bean) [1]): 10.4 µM

SMILES: COc1ccc2cc1Oc1ccc(cc1)C[C@H]1c3cc(c(OC)cc3CCN1C)Oc1c(OC)c(OC)cc3c1[C@H](C2)N(C)CC3 [compound 2, tetrandrine]
- IC50 (urease (jack bean) [1]; read-out: IC50 ± SEM (μg/mL) (converted)): 8.85 µM

SMILES: NC(N)=S [thiourea]
- IC50 (urease (jack bean) [2]): 215 µM
